Source: US20130225839A1, “PREPARATION METHOD OF FOSAMPRENAVIR DERIVATIVES AND RELEVANT INTERMEDIATE THEREOF” (ZHEJIANG JIUHOU PHARMA SCIENCE & TECHNOLOGY CO., LTD., priority 2010, published 2013)
In brackets after ≈: the same amount, converted by molar mass.

What was measured:
[1] = cited from earlier work
[2] = solubility in water or ethanol; format: physicochemical

In the case of `CC(C)CN(C[C@@H](O)[C@H](Cc1ccccc1)NC(=O)O[C@H]1CCOC1)S(=O)(=O)c1ccc(N)cc1` [APV, amprenavir], the “solubility in water at 25° C.” value [1] is listed as 40 µg/mL (≈ 79.1 µM).

For `CC(C)CN(C[C@@H](OP(=O)([O-])[O-])[C@H](Cc1ccccc1)NC(=O)O[C@H]1CCOC1)S(=O)(=O)c1ccc([N+](=O)[O-])cc1.[Na+].[Na+]` [sodium (3S)4etrahydrofuran-3-yl(1S,2R)-3-[(4-nitrophenyl)sulfonyl](isobutyl)amino-1-benzyl-2-(phosphonooxy)propyl-carbamate], the solubility in ethanol ([2]; ethanol) was “soluble” and the solubility in water ([2]; water) was “soluble”.
